# In patent US20190203230A1, “POROUS MEMBRANE-BASED MACROMOLECULE DELIVERY SYSTEM” (NOVARTIS AG, priority 2016, published 2019):
# Test system: HbF
# Assay: Erythroid differentiation and HbF detection by flow cytometry
# Format: cell-based, human
# Settings: erythroid differentiation, flow cytometry (days 7 and 14 collected; day of the values not stated); UNC0638 at 0.5 μM
# Experimental: The present teachings (herein also referred to as TRIAMF for brevity) were applied for the delivery of RNPs consisting of guides targeting the HBG […] to recapitulate the genotype of a form of hereditary persistent fetal hemoglobin found in many patients. […] Through a combination of next generation sequencing (NGS) and quantitative PCR (qPCR), editing efficiency at the target site was determined to be a total average of 63% total editing.
# FIG. 20 depicts percentage of HbF cells at D7 and D14 of erythroid differentiation protocol of WT, mock treated, HBG edited, and UNC0638 (Blood. 2015, July 30:126(5):665-72) positive control treated cells. Cells were analyzed by fixation and staining of CD235a,CD71, and HbF. The cells were collected on days 7 and 14 and stained with CD235a, CD71, and fetal hemoglobin, and analyzed with flow cytometry. […]
smiles,measurement,value
COc1cc2c(NC3CCN(C(C)C)CC3)nc(C3CCCCC3)nc2cc1OCCCN1CCCC1 [UNC0638],cells expressed HbF,92%
